Results: patent US20230265151A1, “GIP/GLP1 CO-AGONIST COMPOUNDS” (priority 2020, published 2023)
Like-named read-outs stand apart in the source and are kept apart here.

Experiments:
[1] = target: T1, human GIP receptor (hGIPR) (Homo sapiens, UniProt P48546); test: [125I]-GIP binding, SPA with membranes of CHO cells expressing hGIPR; conditions: human GIPR; geometric mean (SEM, n); read-out: Binding Affinity Ki, nM (SEM, n) hGIPR
T1 construct: expressed in transfected cells; crude membranes
T1 sequence (P48546 22-466): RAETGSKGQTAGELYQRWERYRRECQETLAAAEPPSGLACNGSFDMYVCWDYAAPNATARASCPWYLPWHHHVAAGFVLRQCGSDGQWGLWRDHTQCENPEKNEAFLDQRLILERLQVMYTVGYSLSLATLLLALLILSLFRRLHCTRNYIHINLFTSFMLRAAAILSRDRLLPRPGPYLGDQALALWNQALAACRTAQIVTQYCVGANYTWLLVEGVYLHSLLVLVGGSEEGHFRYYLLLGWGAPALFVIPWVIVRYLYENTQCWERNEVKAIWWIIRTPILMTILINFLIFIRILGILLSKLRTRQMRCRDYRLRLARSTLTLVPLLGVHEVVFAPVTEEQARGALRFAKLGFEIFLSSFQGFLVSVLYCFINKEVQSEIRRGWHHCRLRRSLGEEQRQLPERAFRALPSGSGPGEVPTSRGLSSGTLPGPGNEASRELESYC

hGIPR = target: T2, hGIPR (Homo sapiens, UniProt P48546); test: Functional cAMP formation (HTRF) in HEK-293 clonal cells expressing hGIPR, 0.1% bovine casein, without or with 1.0% human serum albumin; type: cell-based; conditions: 37° C.; for Emax: HEK293, cAMP, percent of maximal response to GIP(1-42)NH2, read-out: hGIPR Emax, % ± SEM; for EC50: cAMP, 0.1% bovine casein (no human serum albumin), geometric mean, read-out: hGIPR EC50, nM (SEM, n)
T2 construct: expressed in transfected cells
T2 sequence (P48546 22-466): T1 sequence (P48546 22-466)
Procedure, shortened: (§1)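 Readings of the HTRF 665/620 nm ratio, which falls as cAMP rises, were converted to nM cAMP using a standard curve after 30 min peptide exposure at 37° C.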

hGCGR = target: T3, hGCGR (Homo sapiens, UniProt P47871); test: Functional cAMP formation (HTRF) in HEK-293 clonal cells expressing hGCGR, 0.1% bovine casein, without or with 1.0% human serum albumin; type: cell-based; conditions: cAMP, 37° C., read-out: hGCGR EC50, nM (SEM, n)
T3 construct: expressed in transfected cells
Procedure, shortened: as §1

hGLP-1R = hGLP-1R (Homo sapiens, UniProt P43220); test: Functional cAMP formation (HTRF) in HEK-293 clonal cells expressing hGLP-1R, 0.1% bovine casein, without or with 1.0% human serum albumin; type: cell-based; design: expressed in transfected cells; conditions: 37° C.; for EC50: cAMP, read-out: hGLP-1R EC50, nM (SEM, n); for Emax: HEK293, cAMP, percent of maximal response to GLP-1(7-36)NH2, read-out: hGLP-1R Emax, % ± SEM
Procedure, shortened: as §1

[2] = target: T4, human GLP-1 receptor (hGLP-1R) (Homo sapiens, UniProt P43220); test: [125I]-GLP-1 binding, SPA with membranes of HEK293 cells expressing hGLP-1R; conditions: human GLP-1R; geometric mean (SEM, n); read-out: Binding Affinity Ki, nM (SEM, n) hGLP-1R
T4 construct: expressed in transfected cells; crude membranes

[3] = 0.1% bovine casein and 1.0% human serum albumin
[4] = 0.1% bovine casein (no human serum albumin), geometric mean
[5] = 0.1% bovine casein and 1.0% human serum albumin, geometric mean (SEM, n)
[6] = 0.1% bovine casein, arithmetic mean

Chain of hGLP-1R (P43220 24-463): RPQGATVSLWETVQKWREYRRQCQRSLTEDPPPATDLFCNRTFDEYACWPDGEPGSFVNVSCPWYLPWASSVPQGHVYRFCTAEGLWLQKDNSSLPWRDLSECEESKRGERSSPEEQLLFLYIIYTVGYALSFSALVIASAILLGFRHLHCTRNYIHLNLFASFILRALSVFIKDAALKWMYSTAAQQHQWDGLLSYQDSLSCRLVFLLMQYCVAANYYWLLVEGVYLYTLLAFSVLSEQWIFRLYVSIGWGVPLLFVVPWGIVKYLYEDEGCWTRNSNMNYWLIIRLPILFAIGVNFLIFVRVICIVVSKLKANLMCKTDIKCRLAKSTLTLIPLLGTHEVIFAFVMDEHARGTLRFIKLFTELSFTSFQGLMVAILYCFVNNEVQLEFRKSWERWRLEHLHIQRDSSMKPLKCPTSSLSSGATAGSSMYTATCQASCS
T4 sequence (P43220 24-463): as above
T3 sequence (P47871 26-477): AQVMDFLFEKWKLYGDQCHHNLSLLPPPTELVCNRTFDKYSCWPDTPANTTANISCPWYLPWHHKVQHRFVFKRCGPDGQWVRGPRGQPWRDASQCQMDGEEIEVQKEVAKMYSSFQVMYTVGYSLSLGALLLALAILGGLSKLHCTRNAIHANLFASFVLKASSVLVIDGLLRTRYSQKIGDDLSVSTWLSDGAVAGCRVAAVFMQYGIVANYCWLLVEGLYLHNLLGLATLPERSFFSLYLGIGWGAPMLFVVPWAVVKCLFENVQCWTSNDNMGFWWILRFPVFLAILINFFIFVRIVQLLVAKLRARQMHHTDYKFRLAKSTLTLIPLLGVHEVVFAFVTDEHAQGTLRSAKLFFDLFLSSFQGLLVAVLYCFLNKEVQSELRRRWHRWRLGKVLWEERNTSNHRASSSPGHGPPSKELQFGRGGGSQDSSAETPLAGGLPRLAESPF

`CCCCCCCCCCCC(=O)N[C@@H](CCC(=O)NCCOCCOCC(=O)NCCOCCOCC(=O)NCCOCCOCC(=O)NCCCC[C@H](NC(=O)[C@H](CCCN)NC(=O)[C@H](CC(=O)O)NC(=O)[C@H](CC(C)C)NC(=O)[C@](C)(CC(C)C)NC(=O)[C@@H](NC(=O)C(C)(C)NC(=O)[C@H](Cc1ccncc1)NC(=O)[C@H](CC(=O)O)NC(=O)[C@H](CO)NC(=O)[C@@H](NC(=O)[C@](C)(Cc1ccccc1F)NC(=O)[C@@H](NC(=O)CNC(=O)[C@H](CCC(=O)O)NC(=O)C(C)(C)NC(=O)[C@@H](N)Cc1ccc(O)cc1)[C@@H](C)O)[C@@H](C)O)[C@@H](C)CC)C(=O)N[C@@H](C)C(=O)N[C@@H](CCC(N)=O)C(=O)NC(C)(C)C(=O)N[C@@H](CCCCNC(=O)COCCOCCNC(=O)COCCOCCNC(=O)COCCOCCNC(=O)CC[C@H](NC(=O)CCCCCCCCCCC)C(=O)O)C(=O)N[C@@H](Cc1ccccc1)C(=O)N[C@H](C(=O)N[C@H](CCC(=O)O)C(=O)N[C@@](C)(Cc1ccc(O)cc1)C(=O)N[C@@H](CC(C)C)C(=O)N[C@H](C(=O)N[C@@H](CCC(=O)O)C(=O)NCC(=O)NCC(=O)N1CCC[C@H]1C(=O)N[C@@H](CO)C(=O)N[C@@H](CO)C(=O)NCC(=O)N[C@@H](C)C(=O)N1CCC[C@H]1C(=O)N1CCC[C@H]1C(=O)N1CCC[C@H]1C(=O)N[C@@H](CO)C(N)=O)[C@@H](C)CC)[C@@H](C)CC)C(=O)O` [Example 422] showed a Ki [1] of 0.0218 nM, an Emax (hGIPR; [3]) of 97.5% and an EC50 (hGIPR) of 0.00655 nM. It also gave an EC50 (hGCGR; [4]) of over 9950 nM, an EC50 (hGCGR; [5]) of over 9950 nM and an EC50 (hGLP-1R; [4]) of 0.0729 nM. The Ki [2] was 0.194 nM.

Compound `CCCCCCCCCCCC(=O)N[C@@H](CCC(=O)NCCOCCOCC(=O)NCCOCCOCC(=O)NCCOCCOCC(=O)NCCCC[C@H](NC(=O)[C@H](CCCN)NC(=O)[C@H](CC(=O)O)NC(=O)[C@H](CC(C)C)NC(=O)[C@](C)(CC(C)C)NC(=O)[C@@H](NC(=O)C(C)(C)NC(=O)[C@H](Cc1ccncc1)NC(=O)[C@H](CC(=O)O)NC(=O)[C@H](CO)NC(=O)[C@@H](NC(=O)[C@](C)(Cc1ccccc1F)NC(=O)[C@@H](NC(=O)CNC(=O)[C@H](CCC(=O)O)NC(=O)C(C)(C)NC(=O)[C@@H](N)Cc1ccc(O)cc1)[C@@H](C)O)[C@@H](C)O)[C@@H](C)CC)C(=O)N[C@@H](C)C(=O)N[C@@H](CCC(N)=O)C(=O)NC(C)(C)C(=O)N[C@@H](CCC(=O)O)C(=O)N[C@@H](Cc1ccccc1)C(=O)N[C@H](C(=O)N[C@H](CCC(=O)O)C(=O)N[C@@](C)(Cc1ccc(O)cc1)C(=O)N[C@@H](CC(C)C)C(=O)N[C@H](C(=O)N[C@@H](CCCCNC(=O)COCCOCCNC(=O)COCCOCCNC(=O)COCCOCCNC(=O)CC[C@H](NC(=O)CCCCCCCCCCC)C(=O)O)C(=O)NCC(=O)NCC(=O)N1CCC[C@H]1C(=O)N[C@@H](CO)C(=O)N[C@@H](CO)C(=O)NCC(=O)N[C@@H](C)C(=O)N1CCC[C@H]1C(=O)N1CCC[C@H]1C(=O)N1CCC[C@H]1C(=O)N[C@@H](CO)C(N)=O)[C@@H](C)CC)[C@@H](C)CC)C(=O)O` [Example 423] has a Ki [1] of 0.0207 nM, an Emax (hGIPR; [3]) of 89.7% and an EC50 (hGIPR) of 0.00658 nM. For the same compound, the EC50 (hGCGR; [4]) was over 9950 nM, the EC50 (hGCGR; [5]) was over 9950 nM and the Emax (hGLP-1R; [6]) was 105%. For the same compound, the EC50 (hGLP-1R; [4]) was 0.0721 nM and the Ki [2] was 0.275 nM.

`CCCCCCCCCCCC(=O)N[C@@H](CCC(=O)NCCOCCOCC(=O)NCCOCCOCC(=O)NCCOCCOCC(=O)NCCCC[C@H](NC(=O)[C@H](CO)NC(=O)[C@@H]1CCCN1C(=O)[C@@H]1CCCN1C(=O)[C@@H]1CCCN1C(=O)[C@H](C)NC(=O)CNC(=O)[C@H](CO)NC(=O)[C@H](CO)NC(=O)[C@@H]1CCCN1C(=O)CNC(=O)CNC(=O)[C@H](CCC(=O)O)NC(=O)[C@@H](NC(=O)[C@H](CC(C)C)NC(=O)[C@](C)(Cc1ccc(O)cc1)NC(=O)[C@@H](CCC(=O)O)NC(=O)[C@@H](NC(=O)[C@H](Cc1ccccc1)NC(=O)[C@H](CCC(=O)O)NC(=O)C(C)(C)NC(=O)[C@H](CCC(N)=O)NC(=O)[C@H](C)NC(=O)[C@H](CCCCNC(=O)COCCOCCNC(=O)COCCOCCNC(=O)COCCOCCNC(=O)CC[C@H](NC(=O)CCCCCCCCCCC)C(=O)O)NC(=O)[C@H](CCCN)NC(=O)[C@H](CC(=O)O)NC(=O)[C@H](CC(C)C)NC(=O)[C@](C)(CC(C)C)NC(=O)[C@@H](NC(=O)C(C)(C)NC(=O)[C@H](Cc1ccncc1)NC(=O)[C@H](CC(=O)O)NC(=O)[C@H](CO)NC(=O)[C@@H](NC(=O)[C@](C)(Cc1ccccc1F)NC(=O)[C@@H](NC(=O)CNC(=O)[C@H](CCC(=O)O)NC(=O)C(C)(C)NC(=O)[C@@H](N)Cc1ccc(O)cc1)[C@@H](C)O)[C@@H](C)O)[C@@H](C)CC)[C@@H](C)CC)[C@@H](C)CC)C(N)=O)C(=O)O` [Example 424] was tested, and the Ki [1] was 0.0206 nM, the Emax (hGIPR; [3]) was 89.5% and the EC50 (hGIPR) was 0.00502 nM. It also gave an EC50 (hGCGR; [4]) of over 9950 nM, an EC50 (hGCGR; [5]) of over 9950 nM and an Emax (hGLP-1R; [3]) of 98.1%. For the same compound, the EC50 (hGLP-1R; [4]) was 0.0427 nM, the EC50 (hGLP-1R; [5]) was 3.07 nM and the Ki [2] was 0.219 nM.

For `CCCCCCCCCCCC(=O)N[C@@H](CCC(=O)NCCOCCOCC(=O)NCCOCCOCC(=O)NCCOCCOCC(=O)NCCCC[C@H](NC(=O)[C@H](CCCN)NC(=O)[C@H](CC(=O)O)NC(=O)[C@H](CC(C)C)NC(=O)[C@](C)(CC(C)C)NC(=O)[C@@H](NC(=O)C(C)(C)NC(=O)[C@H](CCCCNC(=O)COCCOCCNC(=O)COCCOCCNC(=O)COCCOCCNC(=O)CC[C@H](NC(=O)CCCCCCCCCCC)C(=O)O)NC(=O)[C@H](CC(=O)O)NC(=O)[C@H](CO)NC(=O)[C@@H](NC(=O)[C@](C)(Cc1ccccc1F)NC(=O)[C@@H](NC(=O)CNC(=O)[C@H](CCC(=O)O)NC(=O)C(C)(C)NC(=O)[C@@H](N)Cc1ccc(O)cc1)[C@@H](C)O)[C@@H](C)O)[C@@H](C)CC)C(=O)N[C@@H](C)C(=O)N[C@@H](CCC(N)=O)C(=O)NC(C)(C)C(=O)N[C@@H](CCCN)C(=O)N[C@@H](Cc1ccccc1)C(=O)N[C@H](C(=O)N[C@H](CCC(=O)O)C(=O)N[C@@](C)(Cc1ccc(O)cc1)C(=O)N[C@@H](CC(C)C)C(=O)N[C@H](C(=O)N[C@@H](CCC(=O)O)C(=O)NCC(=O)NCC(=O)N1CCC[C@H]1C(=O)N[C@@H](CO)C(=O)N[C@@H](CO)C(=O)NCC(=O)N[C@@H](C)C(=O)N1CCC[C@H]1C(=O)N1CCC[C@H]1C(=O)N1CCC[C@H]1C(=O)N[C@@H](CO)C(N)=O)[C@@H](C)CC)[C@@H](C)CC)C(=O)O` [Example 432], the Ki [1] was 0.0134 nM, the Emax (hGIPR; [3]) was 96.7% and the EC50 (hGIPR) was 0.00602 nM. It also gave an EC50 (hGCGR; [4]) of over 9950 nM, an EC50 (hGCGR; [5]) of over 9950 nM and an EC50 (hGLP-1R; [4]) of 0.0549 nM. For the same compound, the EC50 (hGLP-1R; [5]) was 1.28 nM and the Ki [2] was 0.134 nM.

Work on `CCCCCCCCCCCC(=O)N[C@@H](CCC(=O)NCCOCCOCC(=O)NCCOCCOCC(=O)NCCOCCOCC(=O)NCCCC[C@H](NC(=O)[C@H](CCCN)NC(=O)[C@H](CC(=O)O)NC(=O)[C@H](CC(C)C)NC(=O)[C@](C)(CC(C)C)NC(=O)[C@@H](NC(=O)C(C)(C)NC(=O)[C@H](Cc1ccncc1)NC(=O)[C@H](CC(=O)O)NC(=O)[C@H](CO)NC(=O)[C@@H](NC(=O)[C@](C)(Cc1ccccc1F)NC(=O)[C@@H](NC(=O)CNC(=O)[C@H](CCC(=O)O)NC(=O)C(C)(C)NC(=O)[C@@H](N)Cc1ccc(O)cc1)[C@@H](C)O)[C@@H](C)O)[C@@H](C)CC)C(=O)N[C@@H](C)C(=O)N[C@@H](CCC(N)=O)C(=O)NC(C)(C)C(=O)N[C@@H](CCCCNC(=O)COCCOCCNC(=O)COCCOCCNC(=O)COCCOCCNC(=O)CC[C@H](NC(=O)CCCCCCCCCCC)C(=O)O)C(=O)N[C@@H](Cc1ccccc1)C(=O)N[C@H](C(=O)N[C@H](CCC(=O)O)C(=O)N[C@@](C)(Cc1ccc(O)cc1)C(=O)N[C@@H](CC(C)C)C(=O)N[C@H](C(=O)N[C@@H](CCCN)C(=O)NCC(=O)NCC(=O)N1CCC[C@H]1C(=O)N[C@@H](CO)C(=O)N[C@@H](CO)C(=O)NCC(=O)N[C@@H](C)C(=O)N1CCC[C@H]1C(=O)N1CCC[C@H]1C(=O)N1CCC[C@H]1C(=O)N[C@@H](CO)C(N)=O)[C@@H](C)CC)[C@@H](C)CC)C(=O)O` [Example 433] yielded a Ki [1] of 0.0175 nM, an Emax (hGIPR; [3]) of 100% and an Emax (hGIPR; [6]) of 94%. The EC50 (hGIPR) was 0.00972 nM, the EC50 (hGCGR; [4]) was over 9950 nM and the EC50 (hGCGR; [5]) was over 9950 nM. For the same compound, the EC50 (hGLP-1R; [4]) was 0.128 nM, the EC50 (hGLP-1R; [5]) was 2.63 nM and the Ki [2] was 0.187 nM.
